In patent US20250262167A1, “COMPOUNDS, TARGETS AND PATHWAYS FOR MACROPHAGE MODULATION” (Massachusetts Institute of Technology, priority 2020, published 2025):

Legend:
[1] = test system: Kupffer cells (KCs); conditions: HFD mice
Protocol: Single cell suspension was prepared from mice from FIG. 24A after 8 weeks on HFD (6 mice per group), stained with anti-F4/80, anti-CD11b and anti-Gr-1. F4/80^+CD11b^+Gr1^low macrophages were purified by cell sorting followed by RNAseq. Shown are differentially expressed genes among the three groups. […] M1-type polarization is expressed as positive scores whereas M2-type polarization is expressed as negative scores.
Mouse livers were dissected and digested with Collagenase IV (Roche). Single cell suspension was stained with anti-F4/80, anti-CD11b and anti-Gr-1. F4/80^+CD11b^+Gr1^low macrophages were sorted by flow cytometry (BD Aria). RNAs were extracted with RNeasy MinElute Kit (Qiagen), converted into cDNA and sequenced using Next-Generation Sequencing (Illumina). RNA-seq data were aligned to the human genome (version hg19) and raw counts of each genes of each sample were calculated with bowtie2 2.2.3 (Langmead et al. 2009) and RSEM 1.2.15 (Li et al. 2011). Differential expression analysis was performed using the program edgeR at P<0.05 with a two-fold change (Robinson et al. 2010). The gene expression level across different samples was normalized and quantified using the function of cpm. DEGs were annotated using online functional enrichment analysis tool DAVID (Huang et al. 2007).

[2] = HFD 16 weeks
Protocol: At week 15 plus 3 days, mice from FIG. 32A were starved overnight (12˜16 hrs) with only water. Glucose (1 mg/kg) was injected intraperitoneally and blood glucose levels were measured at the indicated time. AUC were calculated for statistics (right panel).
Liver samples fixed in 10% buffered formalin were embedded in paraffin, sliced (2 μm sections), and stained with hematoxylin and eosin (H&E). Histological examination for morphological changes was performed in a blinded manner. Liver sections were scored according to the criteria of the NAFLD activity score (NAS).
The GTT were performed in mice 19 weeks after feeding with HFD or NC. For GTT, mice were fasted overnight, followed by an intraperitoneal injection of 1 g/kg glucose. […] Blood was obtained from the tail vein before (0 min) and after (15, 30, 60, 90 and 120 min) the injection of glucose or insulin. Glucose levels were measured using an automatic glucometer (Roche Diagnostics, Rotkreuz, Switzerland).
B6 mice were fed with HFD for 16 weeks.

[3] = test system: hMDMs differentiated into M2 by IL-4 plus IL-13; test: Reprogramming screen and dosage response on M2-like differentiated macrophages; conditions: Homo sapiens, Macrophage, 24 h, read-out: EC;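 also: human monocyte-derived macrophages held 24 h in 5 ng/mL IL-4 plus IL-13 before 24 h compound exposure, with cell shape measured from images in 384-well plates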
[4] = test system: ImKCs; conditions: dose- and time-dependent
Protocol: Total protein lysates were isolated from either mouse ImKCs with or without DPI treatment for 6 and 12 hrs or human primary macrophages with or without DPI treatment for 12 hrs at the indicated concentrations. Equal amounts of total proteins from whole-cell lysates were subjected to Western blotting analysis. β-actin was used as a loading control. Shown are representative data of two independent experiments. […] P values were calculated by student t-test. * P<0.05, ** P<0.01. n.s. not significant.
Proteins were extracted from cells with RIPA buffer. Protein concentration was quantified by BCA Protein Assay Kit (Pierce Biotechnology). Samples containing 20 μg total protein were resolved on a 10% SDS-PAGE gel and electro-transferred onto a PVDF membrane (Millipore Corporation). The membrane was blocked in 5% (w/v) fat-free milk in PBST (PBS containing 0.1% Tween-20). […] The blot was washed twice in PBST and then incubated with anti-Rabbit HRP-conjugated secondary antibody (Cell Signaling Technology, 1:2000) in 5% fat-free milk. The membrane was washed twice in PBST and subjected to protein detection by ECL Plus Western Blotting Detection System (GE Healthcare) before being exposed to a Kodak BioMax XAR film.

[5] = test system: BMDMs (wild-type and Pkm−/−); conditions: dose-dependent
Protocol: WT and Pkm^−/− BMDMs were not treated or treated with DPI (50 and 500 nM) for 24 hrs. The transcript levels of Pkm, Ldha, Hk2 and c-Myc were measured by real-time qPCR. Data were collected from two independent experiments with 3 biological replicates per group. Transcriptional level was normalized to β-actin first and then to DMSO control. Data are presented as the mean±sd. […] Transfected cells were not treated or treated with DPI (50 and 500 nM) for 6 hrs and luciferase activities were measured. Data are presented as the mean±sd (n=5). P values were calculated by student t-test. * P<0.05, ** P<0.01, *** P<0.001, **** P<0.0001.
To test this mechanism, we first determined if PKM2 is required for DPI-induced transcription of glycolytic genes. BMDMs were prepared from wild-type and Pkm^−/− mice, incubated with or without 50 and 500 nM DPI for 24 hours, and the transcript levels of key glycolytic genes were quantified by RT-PCR.
We also determined if c-Myc is induced by DPI in a PKM2-dependent manner. […] To determine whether DPI activates c-Myc transcriptional activity, we performed c-Myc luciferase reporter assays in the parental ImKCs and Pkm^−/− ImKCs.

[6] = test system: mouse BMMs with anti-CD20 labelled human B lymphoma cells (GMB); test: ADCP of mouse macrophages; format: cell-based; parameters: dose or concentration left out as unconfirmed; conditions: co-culture 2 hrs
Protocol: (§1) Conditioned medium (CM) was collected and filtered. B16F10 melanoma cells were cultured for 12 hrs with CM or CM heat-inactivated at 95° C. for 5 min. The number of tumor cells were quantified by flow cytometry. Data were summarized from two independent experiments. * P<0.05 by T-test. P values are shown based on t-test. […] Mouse BMMs (FIG. 14B) or hMDM (FIG. 14C) were treated with […] thiostrepton for 24 hrs, then co-cultured with equal number of eFluro670 and anti-CD20 labelled human B-cell lymphoma cells for 2 hrs, and analyzed by flow cytometry. Macrophages that have phagocytosed tumor cells are identified as efluro670+ and CD14+. Shown are representative eFluro670 histograms gating on CD14+ macrophages from three different experiments.
(§2) To examine whether thiostrepton-activating macrophages or conditioned medium have effects on tumor cell growth, BMMs were treated with thiostrepton for 24 hrs. Equal numbers of primed BMMs and melanoma cells (B16F10) were co-cultured for 12 hrs. […] Thiostrepton elevated ADCP of both human and mouse macrophages (FIGS. 14B-14C).

[7] = test system: B16F10 melanoma cells; test: Tumor growth inhibition by treated macrophages or their conditioned medium; format: cell-based, mouse
Protocol: DEGs were identified by edgeR at P<0.05 with at least 2 fold-change. Data for genes that were not classified as differentially expressed are plotted in black. […] Mouse BMMs were cultured in normal medium with or without 2.5 μM thiostrepton for 24 hrs (group 1), or cultured in B16F10 tumor cell conditioned medium (CM) with or without 2.5 μM thiostrepton for 24 hrs (group 2), or cultured with B16F10 tumor cell CM for 24 hrs first and then treated with 2.5 μM thiostrepton for another 24 hrs (group 3). The transcript levels of the indicated genes were quantified by qPCR. Data were summarized from two independent experiments. […] Mouse BMMs were treated with thiostrepton for 24 hrs. […] The number of tumor cells were quantified by flow cytometry after subtracting macrophages from total number of cells. […]
Conditioned medium (CM) was collected and filtered. […] The number of tumor cells were quantified by flow cytometry. […] Mouse BMMs (FIG. 14B) or hMDM (FIG. 14C) were treated with […] thiostrepton for 24 hrs, then co-cultured with equal number of eFluro670 and anti-CD20 labelled human B-cell lymphoma cells for 2 hrs, and analyzed by flow cytometry. […]
Mouse bone marrow-derived macrophages (mBMM) were prepared as described previously^54. […] Expression of Arg, Fizz1 and Vegfa were quantified by qPCR to assess the development of TAMs. […]

[8] = test system: subcutaneous B16F10 tumors; test: B16F10 melanoma model in B6 mice; format: in vivo, mouse; conditions: for tumor growth: alone; for tumor growth, with TA99: combination with TA99
[9] = test system: hMDMs; test: RNA-seq transcriptional response of hMDMs (GSEA, GO enrichment); format: cell-based, human; conditions: hMDMs, 2.5 μM, 24 hours
Protocol: Duplicate hMDM samples were treated with 2 M2-activating and 6 M1-activating compounds as well as IL-4 and IFNγ for 24 hrs. Gene expression levels were measured by RNA-seq separately. GSEA preranked analysis was performed based on the whole genome gene list ranked on gene expression changes using a gene set of 49 transcriptional modules in response to 29 stimuli in hMDMs. bosut.: bosutinib; alster.: alsterpaullone; mocet.: mocetinostat; thios.: thiostrepton; niclo.: niclosamide; chlor.: chlorhexidine; fenb.: fenbendazole; fluvo.: fluvoxamine. […] Duplicate hMDM samples were stimulated with each ligand and analyzed by RNA-seq separately.
RNAs were extracted with RNeasy MiniElute kit (Qiagen), converted into cDNA and sequenced using Next-Generation Sequencing (Illumina). […] Differential expression analysis was performed using the program edgeR at P<0.05 with a 2 fold-change. The gene expression level across different samples was normalized and quantified using the function of cpm. Differentially expressed genes were annotated using online functional enrichment analysis tool DAVID (http://david.ncifcrf.gov/). Gene set enrichment analysis were performed with GSEA with FDR q-value<0.05.
Fresh hMDMs were treated with compounds at the EC for 24 hours, followed by RNA-seq.

[10] = test system: hMDM with anti-CD20 labelled human B lymphoma cells (GMB); test: ADCP of human macrophages; format: cell-based; parameters: dose or concentration left out as unconfirmed; conditions: co-culture 2 hrs
Protocol: as §1, §2

[11] = flow cytometry, vs vehicle or TA99

c1ccc2c(c1)[I+]c1ccccc1-2 [Diphenyleneiodonium chloride]
expression of genes involved in glycolysis, oxidative phosphorylation and fatty acid metabolism in KCs [1]: upregulated
expression of genes involved in inflammation in KCs [1]: significantly suppressed
macrophage polarization index (MPI) of KCs [1]: reprogrammed to an intermediated phenotype
glucose tolerance [2]: increased
lipid droplet, steatosis and collagen deposition in the liver [2]: reduced
weight gain ([2]; 2 mg/kg every 5 days from week 9): significantly reduced
weight of iWAT ([2]; vs vehicle): significantly lower
EC (M1 Z-score cutoff) [3]: 0.336 µM
HK, GAPDH, LDHA and enolase at the protein level [4]: upregulation
transcription of c-Myc [5]: stimulated the transcription

C=C(NC(=O)C(=C)NC(=O)c1csc(C2=N[C@@H]3c4csc(n4)[C@H]4NC(=O)c5csc(n5)[C@H]([C@](C)(O)[C@@H](C)O)NC(=O)[C@H]5CSC(=N5)/C(=C/C)NC(=O)[C@H]([C@@H](C)O)NC(=O)c5csc(n5)[C@]3(CC2)NC(=O)[C@H](C)NC(=O)C(=C)NC(=O)[C@H](C)NC(=O)[C@H]([C@@H](C)CC)N[C@@H]2C=Cc3c([C@H](C)O)cc(nc3[C@H]2O)C(=O)O[C@@H]4C)n1)C(N)=O [Thiostrepton]
ADCP [6]: elevated
EC (M1 Z-score cutoff) [3]: 0.408 µM
melanoma cells in conditioned medium from treated macrophages ([7]; 12 hrs, vs untreated or heat-inactivated conditioned medium): more melanoma cells were lost
melanoma cells after co-culture with treated macrophages ([7]; BMMs treated 24 hrs, co-culture 12 hrs, vs untreated macrophages, dose-dependent): Significantly more melanoma cells were lost
tumor growth ([8]; I.P., 150 or 300 mg/kg, dosage-dependent): strongly suppressed
tumor growth, with TA99 ([8]; I.P., 150 or 300 mg/kg): additively
expression of Tnf, Il1b, Cxcl1 and Cxcl2 in TAMs ([8]; RNA-seq, day 18, I.P. or S.C.): significantly upregulated
macrophages and monocytes in tumors ([8]; day 18, flow cytometry, vs vehicle or TA99): elevated levels
Arg1 in TAM [8, 11]: decreased levels
iNOS and CD86 in TAM [8, 11]: elevated levels
tumor growth ([8]; para-tumor S.C., 20 mg/kg): suppressed the tumor growth
tumor growth, with TA99 ([8]; para-tumor S.C., 20 mg/kg): additive effects
TNFα+ IFNγ+ NK cells in tumors ([8]; vs vehicle or TA99): increased number
expression of M2 chemokine CCL24 [9]: down-regulate
expression of proinflammatory cytokines TNFα and IL-1β [9]: polarized to express
ADCP [10]: elevated
